According to paper PMC11237073, “Bisphenol S causes excessive estrogen synthesis by activating FSHR and the downstream cAMP/PKA signaling pathway” (Communications Biology, 2024):

Target: T1, follicle stimulating hormone receptor (FSHR) (Homo sapiens, UniProt P23945)
T1 sequence (P23945 18-695): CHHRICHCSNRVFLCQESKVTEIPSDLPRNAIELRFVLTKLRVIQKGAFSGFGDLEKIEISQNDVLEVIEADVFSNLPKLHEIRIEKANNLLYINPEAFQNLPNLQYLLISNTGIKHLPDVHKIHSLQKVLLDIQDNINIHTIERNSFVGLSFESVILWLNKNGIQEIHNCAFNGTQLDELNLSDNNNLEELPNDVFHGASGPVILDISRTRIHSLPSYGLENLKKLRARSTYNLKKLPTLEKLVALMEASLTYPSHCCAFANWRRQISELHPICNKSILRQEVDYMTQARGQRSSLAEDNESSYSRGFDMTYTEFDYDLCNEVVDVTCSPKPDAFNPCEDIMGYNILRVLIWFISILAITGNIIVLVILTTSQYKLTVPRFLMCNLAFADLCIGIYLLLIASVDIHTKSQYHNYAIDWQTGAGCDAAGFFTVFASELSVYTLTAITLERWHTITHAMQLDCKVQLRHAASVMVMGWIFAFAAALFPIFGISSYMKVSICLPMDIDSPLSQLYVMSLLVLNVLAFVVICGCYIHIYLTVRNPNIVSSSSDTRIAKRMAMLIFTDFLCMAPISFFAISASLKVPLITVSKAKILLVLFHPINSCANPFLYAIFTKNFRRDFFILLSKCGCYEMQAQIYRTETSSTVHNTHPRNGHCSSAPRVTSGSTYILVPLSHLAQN
Experiment: isothermal titration calorimetry (Nano ITC, […] BPS into […] FSHR, sequential two-site model)
Details: read-out: Value for specific binding site

Structure (SMILES): O=S(=O)(c1ccc(O)cc1)c1ccc(O)cc1 [BPS, bisphenol S]
- Kd: 183 µM
